Here are results for 22 molecules from patent US20250340574A1, “MODULATORS OF CYSTIC FIBROSIS TRANSMEMBRANE CONDUCTANCE REGULATOR” (Vertex Pharmaceuticals Incorporated, priority 2022, published 2025).

Assay [1] has as its target T1, CFTR (F508del/MF-HBE cells) (Homo sapiens, UniProt P13569, DEL508-508).
T1 construct: human bronchial epithelial (HBE) cells derived from CF subjects heterozygous for F508del and a minimal function CFTR mutation (F508del/MF-HBE); endogenous in cells; host or cells: Primary human bronchial epithelial cells from CF subjects (F508del/MF genotype), differentiated at an air-liquid interface
The assay can be described thus: Ussing chamber assay of CFTR-mediated short-circuit currents, Assay D (single concentration of 1 μM). The class given is cell-based. The settings on record: with 44 nM potentiator and 18 μM Tezacaftor, 20% human serum. The procedure:
(§1) Ussing chamber experiments were performed using human bronchial epithelial (HBE) cells derived from CF subjects heterozygous for F508del and a minimal function CFTR mutation (F508del/MF-HBE) and cultured as previously described (Neuberger T, Burton B, Clark H, Van Goor F Methods Mol Biol 2011:741:39-54). After four days the apical media was removed, and the cells were grown at an air liquid interface for >14 days prior to use.
(§2) To isolate the CFTR-mediated short-circuit (ISC) current, F508del/MF-HBE grown on Costar® Snapwell™ cell culture inserts were mounted in an Ussing chamber and the transepithelial ISC was measured under voltage-clamp recording conditions (Vhold=0 mV) at 37° C. The basolateral solution contained (in mM) 145 NaCl, 0.83 K2HPO4, 3.3 KH2PO4, 1.2 MgCl2, 1.2 CaCl2, 10 Glucose, 10 HEPES (pH adjusted to 7.4 with NaOH) and the apical solution contained (in mM) 145 NaGluconate, 1.2 MgCl2, 1.2 CaCl2, 10 glucose, 10 HEPES (pH adjusted to 7.4 with NaOH) and 30 μM amiloride to block the epithelial sodium channel. Forskolin (20 μM) was added to the apical surface to activate CFTR, followed by apical addition of a CFTR inhibitor cocktail consisting of BPO, GlyH-101, and CFTR inhibitor 172 (each at 20 μM final assay concentration) to specifically isolate CFTR currents. The CFTR-mediated ISC (μA/cm^2) for each condition was determined from the peak forskolin response to the steady-state current following inhibition.
(§3) The activity of the CFTR corrector compounds on the CFTR-mediated ISC was determined in Ussing chamber studies as described above. The F508del/MF-HBE cell cultures were either incubated with the corrector compounds at a range of concentrations in combination with 33 nM (6R,12R)-17-amino-12-methyl-6,15-bis(trifluoromethyl)-13,19-dioxa-3,4,18-triazatricyclo[12.3.1.12,5]nonadeca-1(18),2,4,14,16-pentaen-6-ol and 18 μM Tezacaftor or were incubated with the corrector compounds at a single fixed concentration of 1 μM in combination with 44 nM (6R,12R)-17-amino-12-methyl-6,15-bis(trifluoromethyl)-13,19-dioxa-3,4,18-triazatricyclo[12.3.1.12,5]nonadeca-1(18),2,4,14,16-pentaen-6-ol and 18 μM Tezacaftor for 18-24 hours at 37° C. and in the presence of 20% human serum. The concentration of corrector compounds with 44 nM or 33 nM (6R,12R)-17-amino-12-methyl-6,15-bis(trifluoromethyl)-13,19-dioxa-3,4,18-triazatricyclo[12.3.1.12,5]nonadeca-1(18),2,4,14,16-pentaen-6-ol and 18 μM Tezacaftor during the 18-24 hours incubations was kept constant throughout the Ussing chamber measurement of the CFTR-mediated ISC to ensure compounds were present throughout the entire experiment. The efficacy and potency of the putative F508del correctors was compared to that of the known Vertex corrector, (14S)-8-[3-(2-{Dispiro[2.0.2.1]heptan-7-yl}ethoxy)-1H-pyrazol-1-yl]-12,12-dimethyl-2λ^6-thia-3,9,11,18,23-pentaazatetracyclo[17.3.1.111,14.05,10]tetracosa-1(22),5,7,9,19(23),20-hexaene-2,2,4-trione, in combination with 18 μM Tezacaftor and 1 μM Ivacaftor.
(§4) • Assay A: 0.1 μM to 25 μM, 6 concentrations • Assay B: 0.00001 μM to 25 μM, 12 concentrations • Assay C: 0.026 μM to 25 μM, 6 concentrations • Assay D: Activity at single concentration of 1 μM

Assay [2] has as its target T1, CFTR (F508del/MF-HBE cells). The experiment in a line: Ussing chamber assay of CFTR-mediated short-circuit currents, Assay C (0.026 μM to 25 μM, 6 concentrations). The class given is cell-based. As to conditions: with 33 nM potentiator and 18 μM Tezacaftor, 20% human serum; for Emax: read-out: C Max activity (%). The procedure:
as §1, §2, §3, §4

Like-named read-outs stand apart in the source and are kept apart here.

T1 sequence (P13569 with tags, fused parts or gaps DEL508-508): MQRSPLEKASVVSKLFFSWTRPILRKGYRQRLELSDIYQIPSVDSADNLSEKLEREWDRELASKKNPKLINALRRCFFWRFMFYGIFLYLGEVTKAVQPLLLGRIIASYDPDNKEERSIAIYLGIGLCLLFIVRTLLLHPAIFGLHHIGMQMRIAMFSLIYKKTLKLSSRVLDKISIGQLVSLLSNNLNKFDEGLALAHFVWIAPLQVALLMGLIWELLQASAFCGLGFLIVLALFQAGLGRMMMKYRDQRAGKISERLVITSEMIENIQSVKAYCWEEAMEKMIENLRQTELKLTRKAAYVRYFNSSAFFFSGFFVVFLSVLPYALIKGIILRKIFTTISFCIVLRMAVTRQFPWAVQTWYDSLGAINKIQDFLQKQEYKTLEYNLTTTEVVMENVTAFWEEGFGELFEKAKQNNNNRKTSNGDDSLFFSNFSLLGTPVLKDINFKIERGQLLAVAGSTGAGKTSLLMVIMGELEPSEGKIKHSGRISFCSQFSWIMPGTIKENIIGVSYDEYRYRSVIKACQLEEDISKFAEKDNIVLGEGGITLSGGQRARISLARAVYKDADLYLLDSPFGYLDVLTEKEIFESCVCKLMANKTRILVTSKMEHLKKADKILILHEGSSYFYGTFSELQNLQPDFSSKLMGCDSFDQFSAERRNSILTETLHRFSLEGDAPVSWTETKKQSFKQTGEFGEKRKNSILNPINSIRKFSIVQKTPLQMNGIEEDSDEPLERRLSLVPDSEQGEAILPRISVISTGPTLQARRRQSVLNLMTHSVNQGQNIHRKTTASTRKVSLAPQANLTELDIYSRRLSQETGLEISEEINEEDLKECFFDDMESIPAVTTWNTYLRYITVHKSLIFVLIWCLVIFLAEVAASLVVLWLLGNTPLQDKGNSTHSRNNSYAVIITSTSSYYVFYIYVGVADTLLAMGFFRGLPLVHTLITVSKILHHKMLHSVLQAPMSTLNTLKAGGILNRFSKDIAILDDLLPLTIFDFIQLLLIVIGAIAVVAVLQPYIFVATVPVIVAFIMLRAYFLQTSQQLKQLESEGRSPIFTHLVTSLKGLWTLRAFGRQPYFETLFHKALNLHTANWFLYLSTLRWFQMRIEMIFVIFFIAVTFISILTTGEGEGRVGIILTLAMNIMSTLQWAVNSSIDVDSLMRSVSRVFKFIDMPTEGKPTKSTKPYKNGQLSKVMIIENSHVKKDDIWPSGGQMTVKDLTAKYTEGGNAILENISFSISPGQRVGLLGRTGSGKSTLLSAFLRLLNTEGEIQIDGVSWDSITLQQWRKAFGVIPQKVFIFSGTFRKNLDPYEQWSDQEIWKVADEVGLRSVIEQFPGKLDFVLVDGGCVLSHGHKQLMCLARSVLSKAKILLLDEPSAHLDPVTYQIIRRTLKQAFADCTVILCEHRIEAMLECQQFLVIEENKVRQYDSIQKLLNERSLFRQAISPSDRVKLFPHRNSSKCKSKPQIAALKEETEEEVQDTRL

Regarding `Cc1cccc(C)c1-c1cc2nc(n1)NS(=O)(=O)c1cccc(c1)C(=O)N(Cc1cnc3oc(C(C)(C)C)cc3n1)[C@H](CC1CCC1)CO2` [IV-7], in assay [1], the “D act. at 1 μM (%)” value is “+++ (+++ is >60%)”.

Consider `Cc1cccc(C)c1-c1cc2nc(n1)NS(=O)(=O)c1cccc(c1)C(=O)N(Cc1nc3cc(C(C)(C)C)oc3cc1F)[C@H](CC13CC(C1)C3)CO2` [Compound I-244], for which, in assay [1] (18-24 hours), the “D activity at 1 μM (%)” value was “+++ (+++ is >60%)”.

Take `Cc1cccc(C)c1-c1cc2nc(n1)NS(=O)(=O)c1cccc(c1)C(=O)N(Cc1cnc3oc(C(C)(C)C)cc3n1)[C@H](CC1CCCCC1)CO2` [IV-9]: in assay [1], the “D act. at 1 μM (%)” value was “+++ (+++ is >60%)”.

Take `Cc1cccc(C)c1-c1cc2nc(n1)NS(=O)(=O)c1cccc(c1)C(=O)N(Cc1cnc3cc(C4(C(F)(F)F)CC4)n(C)c3n1)[C@H](COC(C)C)CO2` [IV-74]: in assay [2], the concentration for a half-maximal effect (EC50) was in the range of 1000 to 3000 nM and the Emax is greater than 60%.

With `Cc1cccc(C)c1-c1cc2nc(n1)NS(=O)(=O)c1cccc(c1)C(=O)N(Cc1cnc3oc(C4CC5(CC5)C4)cc3n1)[C@H](CC1(C)CC1)CO2` [IV-65], in assay [2], the EC50 was in the range of 1000 to 3000 nM and the Emax is greater than 60%.

Take `Cc1cccc(C)c1-c1cc2nc(n1)NS(=O)(=O)c1cccc(c1)C(=O)N(Cc1cnc3oc(C4CC4)cc3n1)[C@@H](C1(C(C)C)CC1)CO2` (single isomer, unassigned) [IV-61, 12-[(6-cyclopropylfuro[2,3-b]pyrazin-2-yl)methyl]-6-(2,6-dimethylphenyl)-11-(1-isopropylcyclopropyl)-2,2-dioxo-9-oxa-2λ^6-thia-3,5,12,19-tetrazatricyclo[12.3.1.14,8]nonadeca-1(18),4(19),5,7,14,16-hexaen-13-one]: in assay [2], the 50% effective concentration (EC50) was in the range of 1000 to 3000 nM and the Emax was greater than 60%.

With `Cc1cccc(CC2CCCC2)c1-c1nc2nc(c1C)OC[C@@H](CC(C)(C)C)N(Cc1cnc3cc(C(C)C)n(C)c3n1)C(=O)c1cccc(c1)S(=O)(=O)N2` (atropisomer, axis not shown; (P)) [Compound I-196, (5P,11R)-6-[2-(cyclopentylmethyl)-6-methylphenyl]-11-(2,2-dimethylpropyl)-7-methyl-12-{[5-methyl-6-(propan-2-yl)-5H-pyrrolo[2,3-b]pyrazin-3-yl]methyl}-9-oxa-2λ^6-thia-3,5,12,19-tetraazatricyclo[12.3.1.1∧{4,8}]nonadeca-1(17),4(19),5,7,14(18),15-hexaene-2,2,13-trione], the Emax in assay [2] (18-24 hours) was greater than 60%. Moreover, the EC50 in assay [2] was less than 1000 nM.

For `Cc1cccc(OC(C)C)c1-c1nc2nc(c1C)OC[C@@H](CC(C)(C)C)N(Cc1cnc3cc(C(C)(C)C)n(C)c3n1)C(=O)c1cccc(c1)S(=O)(=O)N2` (atropisomer, axis not shown) [Compound I-260], the Emax in assay [2] (18-24 hours) is greater than 60%. For the same molecule, the EC50 in assay [2] was less than 1000 nM.

For `Cc1cccc(C)c1-c1cc2nc(n1)NS(=O)(=O)c1cccc(c1)C(=O)N(Cc1cnc3cc(C(C)(C)C)n(C)c3n1)[C@H](C1CCCO1)CO2` (single isomer, unassigned) [IV-96], in assay [2], the half-maximal effective concentration (EC50) is less than 1000 nM and the Emax is greater than 60%.

For the molecule `Cc1cccc(C)c1-c1cc2nc(n1)NS(=O)(=O)c1cccc(c1)C(=O)N(Cc1nc3cc(C4CC4)oc3cc1F)[C@H](COC(C)C)CO2` [Compound I-198], the Emax in assay [2] (18-24 hours) was greater than 60%. Further, in assay [2], the EC50 was in the range of 1000 to 3000 nM.

In the case of `Cc1cccc(C)c1-c1cc2nc(n1)NS(=O)(=O)c1cccc(c1)C(=O)N(Cc1ncc3oc(C4CC4)cc3n1)[C@H](CC13CC(C1)C3)CO2` [Compound I-209], in assay [2] (18-24 hours), the Emax is greater than 60%. Further, the EC50 in assay [2] fell in the range of 1000 to 3000 nM.

Regarding `Cc1cccc(CC(C)C)c1-c1nc2nc(c1C)OC[C@@H](CC1(C)CC1)N(Cc1cnc3cc(C4(C(F)(F)F)CC4)n(C)c3n1)C(=O)c1cccc(c1)S(=O)(=O)N2` (atropisomer, axis not shown) [IV-77], in assay [2], the EC50 was 1000 to 3000 nM and the Emax was greater than 60%.

As for `Cc1cccc(C)c1-c1cc2nc(n1)NS(=O)(=O)c1cccc(c1)C(=O)N(Cc1cnc3oc(C4CC4)cc3n1)[C@H]([C@H](C)OC(C)(C)C)CO2` (stereo in doubt) [IV-80], in assay [2], the EC50 was 1000 to 3000 nM and the Emax was greater than 60%.

With `Cc1cccc(C)c1-c1cc2nc(n1)NS(=O)(=O)c1cccc(c1)C(=O)N(Cc1cnc3cc(C4(C(F)(F)F)CC4)n(C)c3n1)[C@H](CC1(C)CC1)CO2` [IV-75], in assay [2], the EC50 was in the range of 1000 to 3000 nM and the Emax was in the range of 30 to 60%.

As to `C=C(C)c1cc2nc(CN3C(=O)c4cccc(c4)S(=O)(=O)Nc4nc(cc(-c5c(C)cccc5C)n4)OC[C@H]3CC3(C)CC3)cnc2o1` [Compound I-255, (11R)-6-(2,6-dimethylphenyl)-12-[(6-isopropenylfuro[2,3-b]pyrazin-2-yl)methyl]-11-[(1-methylcyclopropyl)methyl]-2,2-dioxo-9-oxa-2λ^6-thia-3,5,12,19-tetrazatricyclo[12.3.1.14,8]nonadeca-1(18),4(19),5,7,14,16-hexaen-13-one], in assay [2] (18-24 hours), the Emax is greater than 60%. In addition, the concentration giving a half-maximal response (EC50) in assay [2] was in the range of 1000 to 3000 nM.

On to `Cc1cccc(C)c1-c1cc2nc(n1)NS(=O)(=O)c1cccc(c1)C(=O)N(Cc1cnc3c(n1)CN(C(C)C)C3=O)[C@H](CC1(C)CC1)CO2` [III-18], for which the Emax in assay [2] (18-24 hours) was greater than 60%. For the same molecule, the EC50 in assay [2] lay in the range of 1000 to 3000 nM.

As for `Cc1cccc(C)c1-c1cc2nc(n1)NS(=O)(=O)c1cccc(c1)C(=O)N(Cc1cnc3oc(C(C)CO)cc3n1)[C@H](CC1(C)CC1)CO2` (some centres unmarked) [Compound I-256], the Emax in assay [2] (18-24 hours) is greater than 60%. In assay [2], the EC50 lay in the range of 1000 to 3000 nM.

As to `Cc1cccc(C)c1-c1cc2nc(n1)NS(=O)(=O)c1cccc(c1)C(=O)N(Cc1cnc3cc(C(C)(C)C(F)(F)F)n(C)c3n1)[C@H](COC(C)C)CO2` [IV-99], in assay [2], the EC50 fell in the range of 1000 to 3000 nM and the Emax is greater than 60%.

Consider `CCc1cccc(CC)c1-c1cc2nc(n1)NS(=O)(=O)c1cccc(c1)C(=O)N(Cc1cnc3cc(C(C)(C)C)n(C)c3n1)[C@H](CC(C)(C)C)CO2` [IV-66], for which, in assay [2], the 50% effective concentration (EC50) is less than 1000 nM and the Emax is greater than 60%.

Regarding `Cc1cccc(CC(C)(C)C)c1-c1nc2nc(c1C)OC[C@@H](CC(C)(C)C)N(Cc1cnc3oc(C(C)(C)C)cc3n1)C(=O)c1cccc(c1)S(=O)(=O)N2` (atropisomer, axis not shown) [Compound I-245], the Emax in assay [2] (18-24 hours) is greater than 60%. In addition, in assay [2], the EC50 is less than 1000 nM.

For `Cc1cccc(CC(C)C)c1-c1nc2nc(c1C)OC[C@@H](C[C@@H]1CCCCO1)N(Cc1cnc3cc(C(C)(C)C)n(C)c3n1)C(=O)c1cccc(c1)S(=O)(=O)N2` (atropisomer, axis not shown) [IV-81], in assay [2], the concentration giving a half-maximal response (EC50) was less than 1000 nM and the Emax was greater than 60%.

For `Cc1cccc(CC(C)C)c1-c1nc2nc(c1C)OC[C@@H](COC(C)C)N(Cc1cnc3cc(C4(C(F)(F)F)CC4)n(C)c3n1)C(=O)c1cccc(c1)S(=O)(=O)N2` (atropisomer, axis not shown; (P)) [IV-76, (5P,11R)-7-methyl-6-[2-methyl-6-(2-methylpropyl)phenyl]-12-({5-methyl-6-[1-(trifluoromethyl)cyclopropyl]-5H-pyrrolo[2,3-b]pyrazin-3-yl}methyl)-11-[(propan-2-yloxy)methyl]-9-oxa-2λ^6-thia-3,5,12,19-tetraazatricyclo[12.3.1.1∧{4,8}]nonadeca-1(18),4(19),5,7,14,16-hexaene-2,2,13-trione], in assay [2], the EC50 is less than 1000 nM and the Emax was greater than 60%.
